Here are results for eight compounds from US4968690A (priority 1989, dated 1990).

pIC50, pKi: −log10 of the molar value. Where two headings read alike, the source gives them in different places.

In data set [1] the test system is Dengue virus Type II, strain 16681. The experiment in a line: Antiviral effect, Dengue Type II in BHK21 cells (plaque reduction). Format: cell-based. The conditions noted are these: for inhibition at 5 µg/mL / inhibition at 25 µg/mL / inhibition at 50 µg/mL: Dengue virus, BHK-21, BHK21 cells, read-out: % PFU Reduction, Dengue Type II; for inhibition at 5 µg/mL: 5 μg/ml; for inhibition at 25 µg/mL: 25 μg/ml; for inhibition at 50 µg/mL: 50 μg/ml.

The subject of data set [2] is viruses. The experiment in a line: General antiviral evaluation. The data set is classed as cell-based. The conditions noted are these: compared with CPE-C.
The test system of data set [3] is cells used to support virus growth. The experiment in a line: Toxicity to cells used to support virus growth. Conditions: listed concentrations 50, 25, 5 μg/ml. Format: cell-based. The text has this: ^(a) Concentrations listed were nontoxic to cells used to support
^(a) Concentrations listed were noncytotoxic to cells used to support

Data set [4] has as its system HL-60 cells. The experiment in a line: Cell viability / acute cytotoxicity in HL-60 cells. The data set is classed as cell-based, human. The text has this: This reduced toxicity provides excellent selectivity and potency as an antiviral agent.
For data set [5], the system named is Dengue virus Type II, strain 16681. The data set can be described thus: Antiviral effect, Dengue II in Vero E6 cells (plaque reduction). The conditions noted are these: Vero C1008, read-out: % PFU Reduction, Dengue II. Format: cell-based.
Data set [6] concerns Polio Type III virus (Sabin oral vaccine strain). The experiment in a line: microbe, parasite or virus in culture. Format: cell-based.
Data set [7] deals with Coxsackie A9 virus, strain 1861. The experiment in a line: Antiviral effect, Coxsackie A9 in Viro E6 cells (plaque reduction). The data set is classed as cell-based. The conditions noted are these: read-out: % PFU Reduction, Coxsackie 9A.
Data set [8] addresses hamster liver adenosine-homocystine (AdoHyc) hydrolase (Mesocricetus auratus, UniProt A0A1U7RAJ1). The data set can be described thus: Inhibition of hamster liver AdoHcy hydrolase.
For data set [9], the system named is H.Ep.-2 cells. The conditions noted are these: background; cited from earlier work.
Data set [10] has as its system L1210 cells. The conditions noted are these: background; cited from earlier work.
Data set [11] deals with L1210 leukemia. The conditions noted are these: background; cited from earlier work.
Data set [12] has as its system quiescent normal cells. The conditions noted are these: subtoxic concentrations; cited from earlier work.
Data set [13] has as its system malignant cell lines. Conditions: subtoxic concentrations; cited from earlier work.
Data set [14] deals with adenosine deaminase. Conditions: background; cited from earlier work.
In data set [15] the test system is L1210 tumor cells. The experiment in a line: Cytotoxicity against L1210 tumor cells in culture. Format: cell-based. Conditions: Mus musculus, 48 hour exposure.
The subject of data set [16] is Herpes Simplex Type II virus, strain 28382. The data set can be described thus: Antiviral effect, Herpes Simplex II in mink lung cells (plaque reduction). The data set is classed as cell-based. Conditions: for inhibition at 5 µg/mL: 5 μg/ml; for inhibition at 25 µg/mL: 25 μg/ml. An excerpt: ^(b) Herpes Simplex Type II virus, strain 28382 in mink lung cells.
^(d) Plaque forming units (PFU) is a measure of the infectivity of th
^(e) Multiplicity of infection (MOI) 2.0 PFU/ml.

The subject of data set [17] is Adenovirus Type 7, strain V1012. The data set can be described thus: Antiviral effect, Adenovirus 7 in Hep2 cells (plaque reduction). Format: cell-based. The text has this: ^(c) Adenovirus Type 7, strain V1012 in Hep2 cells.
Data set [18] concerns HL-60 cells. The experiment in a line: Growth inhibition and differentiation of HL-60 cells (nitroblue tetrazolium reduction). Format: cell-based, human. An excerpt:
(§1) The effect of this compound on differentiation, and nucleic acid and nucleotide biosynthesis were examined in the malignant human promyelocytic leukemia cell line, HL-60. […] During this exposure interval, pronounced differentiation to mature myeloid cells occurred wherein 95% of the cell population reduced nitroblue tetrazolium four days after exposure to 10^-7 M CPE-C.

Data set [19] relates to DNA synthesis / RNA synthesis in HL-60 cells. The data set can be described thus: DNA and RNA synthesis in HL-60 cells. Format: cell-based, human.
Excerpt: as §1

Data set [20] has as its system c-myc mRNA. The data set can be described thus: c-myc mRNA levels in HL-60 cells. The data set is classed as cell-based, human. Conditions: preceding induction of mature myeloid cells.
Excerpt: as §1

Data set [21] concerns CTP, UTP, ATP, GTP levels in HL-60 cells. The data set can be described thus: Nucleotide (CTP, UTP, ATP, GTP) levels in HL-60 cells. Format: cell-based, human.
Excerpt: as §1

In data set [22] the test system is enzyme which hydrolyzes S-adenosyl-L-homocysteine (AdoHcy). The conditions noted are these: background; cited from earlier work.
The conditions of data set [23]: background; cited from earlier work.
The conditions of data set [24]: background; cited from earlier work. The source holds these as a separate data set.
The mark [25] stands for this setting: read-out: % PFU Reduction, Polio III.
The mark [26] stands for this setting: read-out: % PFU Reduction, Polio Type III.
Where [27] appears, read: mink lung cells, first value of cell, presumably MOI 2.0 PFU/ml, read-out: % PFU Reduction, Herpes Simplex II (first value).
Setting [28] is: mink lung cells, second value of cell, read-out: % PFU Reduction, Herpes Simplex II (second value).

Turning to `O=c1ccn([C@@H]2C=C(CO)[C@@H](O)[C@H]2O)c(=O)[nH]1` [CPE-U], in data set [1], the “antiviral activity (in words), Dengue Type II” value is listed as “good activity”; the inhibition at 5 µg/mL is 2%; the inhibition at 25 µg/mL amounted to 91%; the inhibition at 50 µg/mL worked out at 93%. In addition, the “general antiviral activity (in words)” value in data set [2] was “less effective as a general antiviral agent”. In data set [3], the “toxicity to cells used to support virus growth” value (from here on “toxicity to cells used”) is recorded as “noncytotoxic”.
As to `Nc1nccc2c1ncn2[C@@H]1C=C(CO)[C@@H](O)[C@H]1O` [3-Deazaneplanocin A, 4-Amino-1-[(1'R,2'S,3'R)-4'-hydroxymethyl-2',3'-dihydroxy-4'-cyclopenten-1'-yl]imidazo[4,5-c]pyridine], the “toxicity (in words)” value in data set [4] (summary statement, compared with neplanocin A) was “without the toxicity of neplanocin A”. For the same compound, the “change in cell viability” value in data set [4] (two days of continuous exposure) was “Little or no change in cell viability”. The inhibition at 5 µg/mL came out at 14.2% in data set [5], 44.4% in data set [6] (setting [25]) and 69.4% in data set [7]. Besides, the inhibition at 25 µg/mL in [5] is 95%; in data set [6] (setting [25]), 77.7%; in [7], 77.2%. Also, the results for the inhibition at 50 µg/mL in [5], in [6] (setting [25]) and in data set [7] were 98.9%, 83.3% and 89.4%, respectively. For the same compound, the “toxicity to cells used” value in data set [3] was “nontoxic”. The same compound gave a pKi in [8] of 10.30. Besides, the “inhibition of AdoHyc hydrolase (in words)” value in data set [8] (summary statement) is reported as “particularly potent inhibitor”. Also, the mode of inhibition result in data set [8] (with adenosine) is given as “competitive inhibitor”.
`Nc1ncnc2c1ncn2[C@@H]1C[C@H](CO)[C@@H](O)[C@H]1O` [C-Ado]: in [9], the “cytotoxicity to H.Ep.-2 cells in culture” value is recorded as “highly cytotoxic”. The “cytotoxicity to L1210 cells in culture” value in data set [10] is “highly cytotoxic”. In addition, in data set [11], the “activity in in vivo mouse L1210 model” value was “inactivity”. For the same compound, the “cell proliferation of quiescent normal cells” value in [12] is on record as “induced cell proliferation”. Also, in data set [13], the “growth in malignant cell lines” value is listed as “inhibited growth”. For the same compound, in data set [14], the “affinity for adenosine deaminase relative to adenosine” value was “hundredfold lower” and the “deamination by adenosine deaminase” value is “also deaminated by adenosine deaminase”.
`Nc1ncnc2c1nnn2[C@@H]1C=C(CO)[C@@H](O)[C@H]1O` [Formula 8-Aza-CPE-A, 7-Amino-3-[(1'R,2'S,3'R)-4'-hydroxymethyl-2',3'-dihydroxy-4'-cyclopenten-1'-yl]-3H-1,2,3-triazolo[4,5-d]pyrimidine] gave a pIC50 in data set [15] of 5.52.
As for `Nc1ccn([C@@H]2C=C(CO)[C@@H](O)[C@H]2O)c(=O)n1` [CPE-C, 4-amino-1-[(1'R,2'S,3'R)-4'-hydroxymethyl-4'-cyclopenten-1'-yl]-2(1H)pyrimidinone], the inhibition at 5 µg/mL in [6] (setting [26]) was 73.2%; in data set [16] (setting [27]), 98.7%; in data set [16] (setting [28]), 98.6%; in [17] (Human mastadenovirus B, HEp-2, 5 μg/ml, Hep2 cells, read-out: % PFU Reduction, Adenovirus 7), 70%; in data set [1], 0%. Also, the inhibition at 25 µg/mL in [6] (setting [26]) is 82.1%; in [16] (setting [27]), 95.7%; in [16] (setting [28]), 99.5%; in [17] (Human mastadenovirus B, HEp-2, 25 μg/ml, Hep2 cells, read-out: % PFU Reduction, Adenovirus 7), 80%; in data set [1], 2.5%. Besides, the inhibition at 50 µg/mL is 94.6% in data set [6] (setting [26]); 100% in data set [16] (50 μg/ml, mink lung cells, second value of cell, read-out: % PFU Reduction, Herpes Simplex II (second value)); 97.4% in [16] (read-out: % PFU Reduction, Herpes Simplex II (first value)); 94% in [17] (Human mastadenovirus B, HEp-2, 50 μg/ml, Hep2 cells, read-out: % PFU Reduction, Adenovirus 7); 95% in [1]. In data set [16] (non-cytotoxic concentrations), the “antiviral activity (in words), Herpes Simplex Type II” value is listed as “excellent activity”. Further, the “antiviral activity (in words), Adenovirus Type 7” value in data set [17] (non-cytotoxic concentrations) is “excellent activity”. Besides, in data set [18] (continuous exposure for 5 days, 10^-8 to 10^-6 M), the “inhibition of cell growth” value is recorded as “progressive inhibition of cell growth”. In addition, the “differentiation to a non-malignant phenotype” value in [18] (continuous exposure for 5 days, 10^-8 to 10^-6 M, nitroblue tetrazolium reduction) was “differentiation to a non-malignant phenotype”. Moreover, the “cell population that reduced nitroblue tetrazolium” value in [18] (four days after exposure to 10^-7 M) is 95 % of the cell population. Further, in [18] (summary statement), the “activity as cancer cell differentiating agent (in words)” value is “potent cancer cell differentiating agent”. The RNA synthesis result in data set [19] (10^-7 M, relative to DNA synthesis) is “inhibited to a lesser extent”. For the same compound, the activity at 0.1 µM in [19] (Homo sapiens, HL-60, 24 hrs. after exposure to 10^-7 M) was found to be 10%. In data set [20], the “c-myc mRNA levels” value was “inhibition of c-myc mRNA levels which was more pronounced than the reduction in total cellular RNA synthesis”. Also, the “level of CTP (in words)” value in data set [21] (during CPE-C treatment) is “rapid and pronounced inhibition”. In addition, the “level of UTP, ATP or GTP” value in data set [21] (during CPE-C treatment) is on record as “not of UTP, ATP or GTP”. Further, the “CTP levels following drug removal” value in data set [21] (following drug removal) is reported as “sustained reduction in CTP levels”. Moreover, the “toxicity to cells used” value in [3] is recorded as “noncytotoxic”.
In the case of 3-deazaaristeromycin, in [22], the “inhibition of AdoHcy-hydrolyzing enzyme (in words)” value is “very potent and specific inhibitor”. The phosphorylation and deamination result in data set [23] is “resistance towards phosphorylation and deamination”. For the same compound, the side effects entry in data set [24] was “devoid of some of the undesirable side effects”.
Turning to `Nc1ncnc2c1ncn2[C@@H]1C=C(CO)[C@@H](O)[C@H]1O` [Neplanocin A, 9-[(1'R,2'S,3'R)-4-Hydroxymethyl-2',3'-dihydroxy-4-cyclopenten-1'-yl]adenine], the “toxicity to HL-60 cells” value in data set [4] (24 hrs. exposure, equimolar concentration, vs 3-deazaneplanocin) was “more toxic”. The “inhibition of AdoHcy-hydrolyzing enzyme (in words)” value in data set [22] was “potent inhibitor”. Further, the phosphorylation result in [23] is “readily phosphorylated”. In addition, in data set [24], the side effects entry is “multiplicity of side effects including cytotoxicity”.
As for `Nc1nccc2c1ncn2[C@@H]1O[C@H](CO)[C@@H](O)[C@H]1O` [3-deazaadenosine], in [23], the phosphorylation and deamination entry was “resistance towards phosphorylation and deamination”.
